From patent publication US10300071B2, “Compositions and methods for inhibition of mycobacteria” (priority 2014, dated 2019)
Converted amounts (≈) assume the structure as drawn. Read-outs that look alike come from different tables or passages of the source.

How the values were obtained:
[1] = Pharmacokinetic studies in mice, plasma concentration after gavage (LC/MS); settings: gavage
Mtb AccD6 = Mtb AccD6 (Mycobacterium tuberculosis, UniProt P9WQH5); assay: biochemical; format: biochemical; settings: 300 μM malonyl-CoA, inhibitor 10 μM to 2000 μM
Mtb AccD6, sequence (P9WQH5 whole entry, looked up): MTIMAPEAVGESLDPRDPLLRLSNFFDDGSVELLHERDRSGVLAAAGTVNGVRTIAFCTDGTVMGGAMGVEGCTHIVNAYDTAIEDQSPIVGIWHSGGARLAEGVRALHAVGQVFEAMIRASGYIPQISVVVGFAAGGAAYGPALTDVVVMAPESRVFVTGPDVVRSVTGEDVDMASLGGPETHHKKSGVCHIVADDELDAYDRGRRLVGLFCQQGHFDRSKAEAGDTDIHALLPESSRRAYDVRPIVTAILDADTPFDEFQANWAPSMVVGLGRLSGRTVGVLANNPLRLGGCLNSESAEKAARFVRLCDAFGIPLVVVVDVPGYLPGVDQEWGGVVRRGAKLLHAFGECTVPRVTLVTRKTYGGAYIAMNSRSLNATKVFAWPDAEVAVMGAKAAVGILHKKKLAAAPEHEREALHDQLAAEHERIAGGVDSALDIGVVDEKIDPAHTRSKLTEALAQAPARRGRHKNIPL

Mtb strain mc^2-7000 = assay: microbe, parasite or virus in culture; format: cell-based, Mycobacterium tuberculosis; settings: 6 days incubation at 37° C., resazurin, read on the 7th day
[2] = Mycobacterium tuberculosis, 144 h, read-out: MIC

Row | SMILES | peak plasma concentration (FIG. 8) ([1]; single dose 200 mg/kg, PEG, 90 minutes after gavage) | peak plasma concentration (FIG. 7) ([1]; two doses 100 mg/kg 4 hours apart, canola oil, 30 minutes after gavage) | IC50 (Mtb AccD6; read-out: IC50) | concentrations at which not toxic, s. cerevisiae cytotoxicity (S. cerevisiae) | concentrations at which not toxic, human fibroblast cytotoxicity (human fibroblast) | MIC (Mtb strain mc^2-7000; [2]) | IC50 (Mtb AccD6) | MIC (Mtb strain mc^2-7000)
1 | CONC(=O)C(C)c1ccc(Oc2nc3ccc(Cl)cc3s2)cc1 (racemic) [NZ-313, 2-{4-[(6-chloro-1,3-benzothiazol-2-yl)oxy]phenyl}-N-methoxypropanamide] | 1 | approximately 0.69 μL/mg | 320 nM | ≥ 100 µM | ≥ 100 µM | 0.38 µM (≈ 0.138 µg/mL) | – | –
2 | CC(C)NC(=O)Nc1ccc(Oc2nc3ccc(C(F)(F)F)cc3s2)cc1 [NZ-379, 3-(propan-2-yl)-1-(4-{[6-(trifluoromethyl)-1,3-benzothiazol-2-yl]oxy}phenyl)urea] | – | – | – | ≥ 100 µM | ≥ 100 µM | – | Not Active | Not Active
3 | CC(C)NC(=O)Nc1ccc(Oc2nc3ccc(S(C)(=O)=O)cc3s2)cc1 [NZ-380, 1-{4-[(6-methanesulfonyl-1,3-benzothiazol-2-yl)oxy]phenyl}-3-(propan-2-yl)urea] | – | – | – | ≥ 100 µM | ≥ 100 µM | 3.4 µM (≈ 1.38 µg/mL) | Not Active | –
4 | CC(C)NC(=O)Nc1ccc(Oc2nc3ccc(CO)cc3s2)cc1 [NZ-381, 1-(4-{[6-(hydroxymethyl)-1,3-benzothiazol-2-yl]oxy}phenyl)-3-(propan-2-yl)urea] | – | – | – | ≥ 100 µM | ≥ 100 µM | 7.3 µM (≈ 2.61 µg/mL) | Not Active | –
5 | CC(C)NC(=O)Nc1ccc(Oc2nc3cc(F)c(F)cc3s2)cc1 [NZ-382, 1-{4-[(5,6-difluoro-1,3-benzothiazol-2-yl)oxy]phenyl}-3-(propan-2-yl)urea] | – | – | 270 to 350 nM | 50 to 100 µM | ≥ 100 µM | – | – | Not Active
6 | CNC(=O)Cc1ccc(Oc2nc3ccc(Cl)cc3s2)cc1 [NZ-383, 2-{4-[(6-chloro-1,3-benzothiazol-2-yl)oxy]phenyl}-N-methylacetamide] | – | – | 800 to 1170 nM | ≥ 100 µM | ≥ 100 µM | 3.9 µM (≈ 1.3 µg/mL) | – | –
7 | CNC(=O)Cc1ccc(Oc2nc3ccc(F)cc3s2)cc1 [NZ-385, 2-{4-[(6-fluoro-1,3-benzothiazol-2-yl)oxy]phenyl}-N-methylacetamide] | – | – | 870 nM | ≥ 100 µM | ≥ 100 µM | 3 µM (≈ 0.949 µg/mL) | – | –
8 | CNC(=O)C(C)c1ccc(Oc2nc3ccc(F)cc3s2)cc1 (stereo not shown) [NZ-386, 2-{4-[(6-fluoro-1,3-benzothiazol-2-yl)oxy]phenyl}-N-methylpropanamide] | – | – | 620 nM | ≥ 100 µM | ≥ 100 µM | 1.1 to 2.1 µM (≈ 0.363 to 0.694 µg/mL) | – | –
9 | CNC(=O)C(C)c1ccc(Oc2nc3cc(F)c(F)cc3s2)cc1 (stereo not shown) [NZ-387, 2-{4-[(5,6-difluoro-1,3-benzothiazol-2-yl)oxy]phenyl}-N-methylpropanamide] | – | – | 260 nM | ≥ 100 µM | ≥ 100 µM | 2.7 to 8 µM (≈ 0.941 to 2.79 µg/mL) | – | –
10 | CC(C)NC(=O)N(C)c1ccc(Oc2nc3ccc(Cl)cc3s2)cc1 [NZ-388, 1-{4-[(6-chloro-1,3-benzothiazol-2-yl)oxy]phenyl}-1-methyl-3-(propan-2-yl)urea] | – | – | 3000 nM | ≥ 100 µM | ≥ 100 µM | 2.1 µM (≈ 0.789 µg/mL) | – | –
11 | CNC(=O)Cc1ccc(Oc2nc3ccc(Cl)cc3s2)cc1O [NZ-389, 2-{4-[(6-chloro-1,3-benzothiazol-2-yl)oxy]-2-hydroxyphenyl}-N-methylacetamide] | – | – | 210 nM | ≥ 100 µM | ≥ 100 µM | 1.2 to 2.2 µM (≈ 0.419 to 0.767 µg/mL) | – | –
12 | CNC(=O)Cc1ccc(O)cc1Oc1nc2ccc(Cl)cc2s1 [NZ-390, 2-{2-[(6-chloro-1,3-benzothiazol-2-yl)oxy]-4-hydroxyphenyl}-N-methylacetamide] | – | – | 15400 nM | ≥ 100 µM | ≥ 100 µM | – | – | Not Active
13 | CC(C)NC(=O)Nc1ccc(Oc2nc3ccc(Cl)cc3s2)c[n+]1[O-] [NZ-391, 1-{5-[(6-chloro-1,3-benzothiazol-2-yl)oxy]-1-oxo-1λ^5-pyridin-2-yl}-3-(propan-2-yl)urea] | – | – | – | ≥ 100 µM | ≥ 100 µM | – | Not Active | Not Active
14 | CNC(=O)Cc1ccc(Oc2nc3ccc(Cl)cc3s2)cc1OC [NZ-392, 2-{4-[(6-chloro-1,3-benzothiazol-2-yl)oxy]-2-methoxyphenyl}-N-methylacetamide] | – | – | 7180 nM | ≥ 100 µM | ≥ 100 µM | 7.28 µM (≈ 2.64 µg/mL) | – | –
15 | CNC(=O)C(C)c1ccc(Oc2nc3cc(Cl)c(Cl)cc3s2)cc1 (stereo not shown) [NZ-394, 2-{4-[(5,6-dichloro-1,3-benzothiazol-2-yl)oxy]phenyl}-N-methylpropanamide] | – | – | 980 nM | ≥ 100 µM | ≥ 100 µM | – | – | Not active
16 | CNC(=O)Cc1ccc(Oc2nc3ccc(F)cc3s2)cc1O [NZ-395, 2-{4-[(6-fluoro-1,3-benzothiazol-2-yl)oxy]-2-hydroxyphenyl}-N-methylacetamide] | – | – | 160 nM | ≥ 100 µM | ≥ 100 µM | 0.6 to 0.9 µM (≈ 0.199 to 0.299 µg/mL) | – | –
17 | COC(=O)Cn1ccc(Oc2nc3ccc(Cl)cc3s2)cc1=O [NZ-396, methyl 2-{4-[(6-chloro-1,3-benzothiazol-2-yl)oxy]-2-oxo-1,2-dihydropyridin-1-yl}acetate] | – | – | 11300 nM | ≥ 100 µM | ≥ 100 µM | 6.19 to 8.6 µM | – | –
18 | O=C(O)Cn1ccc(Oc2nc3ccc(Cl)cc3s2)cc1=O [NZ-397, 2-{4-[(6-chloro-1,3-benzothiazol-2-yl)oxy]-2-oxo-1,2-dihydropyridin-1-yl}acetic acid] | – | – | 450 nM | ≥ 100 µM | ≥ 100 µM | – | – | Not Active
19 | COC(=O)Cc1ccc(Oc2nc3cc(F)c(F)cc3s2)cc1 [NZ-398, methyl 2-{4-[(5,6-difluoro-1,3-benzothiazol-2-yl)oxy]phenyl}acetate] | – | – | 3600 nM | ≥ 100 µM | ≥ 100 µM | 0.89 µM | – | –
20 | O=C(O)Cc1ccc(Oc2nc3cc(F)c(F)cc3s2)cc1 [NZ-399, 2-{4-[(5,6-difluoro-1,3-benzothiazol-2-yl)oxy]phenyl}acetic acid] | – | – | 180 nM | ≥ 100 µM | ≥ 100 µM | 1.36 µM (≈ 0.437 µg/mL) | – | –
21 | CNC(=O)Cc1ccc(Oc2nc3cc(F)c(F)cc3s2)cc1 [NZ-400, 2-{4-[(5,6-difluoro-1,3-benzothiazol-2-yl)oxy]phenyl}-N-methylacetamide] | – | – | 210 nM | ≥ 100 µM | ≥ 100 µM | 0.61 µM (≈ 0.204 µg/mL) | – | –
22 | CNC(=O)Cc1ccc(Oc2nc3cc(F)c(F)cc3s2)cc1O [NZ-401, 2-{4-[(5,6-difluoro-1,3-benzothiazol-2-yl)oxy]-2-hydroxyphenyl}-N-methylacetamide] | – | – | 120 nM | ≥ 100 µM | ≥ 100 µM | 0.54 µM (≈ 0.189 µg/mL) | – | –
23 | CNC(=O)Cc1ccc(Oc2cnc3cc(Cl)ccc3n2)cc1O [NZ-402, 2-{4-[(6-chloroquinoxalin-2-yl)oxy]-2-hydroxyphenyl}-N-methylacetamide] | – | – | 210 nM | ≥ 100 µM | ≥ 100 µM | 2.16 µM (≈ 0.743 µg/mL) | – | –
